Results on 21 compounds are retold here after patent US20150038438A1, “ANTIBACTERIAL COMPOUNDS AND METHODS FOR USE” (PTC THERAPEUTICS, INC., priority 2011, published 2015).

Each structure is given as a SMILES string. Some results are limits rather than exact numbers.

Common to all, as to assay: Antibacterial activity, microbroth dilution method (MIC)
For orientation: Broth dilution looks for growth in wells or tubes with falling amounts of substance.

The test system of assay [1] is control Gram-negative E. coli 25922 strain. Format: cell-based, Escherichia coli. Particulars: Escherichia coli. The source says: (§1) The antibacterial activity from a microbroth dilution method may be presented as the minimum inhibitory concentration (MIC in μg/mL). The MIC value is the lowest concentration of drug which prevents macroscopically visible growth under test conditions.
(§2) Antibacterial activity of test compounds against the super sensitive Gram-negative Escherichia coli (E. coli) BAS849 bacterium, the control Gram-negative E. coli 25922 strain and the Gram-positive Staphylococcus aureus (S. aureus) 29213 bacterium are shown in Table 1.

Assay [2] relates to super sensitive Gram-negative Escherichia coli (E. coli) BAS849. Type of assay: cell-based. As to conditions: Escherichia coli; super sensitive Gram-negative E. coli BAS849; microbroth dilution; read-out: MIC, E. coli BAS849.
Source text: as §1, §2

The subject of assay [3] is Gram-positive Staphylococcus aureus (S. aureus) 29213. Type of assay: cell-based. As to conditions: Staphylococcus aureus, Gram-positive S. aureus 29213.
Source text: as §1, §2

The MIC is the smallest concentration in the dilution series that meets the test's criterion for growth inhibition. Turning to `Cl.Cn1c(CNC2CCC2)cc2cc3c(cc21)CCCc1c-3[nH]c(=O)c(C(=O)O)c1O` [Cpd 23, 10-((cyclobutylamino)methyl)-4-hydroxy-9-methyl-2-oxo-1,2,5,6,7,9-hexahydropyrido[3′,2′:6,7]cyclohepta[1,2-f]indole-3-carboxylic acid hydrochloride], the MIC in assay [1] was less than 1 µg/mL; in assay [2], less than 1 µg/mL; in assay [3], 3.5 to 12.5 µg/mL.

`Cl.Cn1c(CN2CCC2)cc2cc3c(cc21)CCCc1c-3[nH]c(=O)c(C(=O)O)c1O` [Cpd 24, 10-(azetidin-1-ylmethyl)-4-hydroxy-9-methyl-2-oxo-1,2,5,6,7,9-hexahydropyrido[3′,2′:6,7]cyclohepta[1,2-f]indole-3-carboxylic acid hydrochloride]: the MIC was less than 1 µg/mL in assay [1], less than 1 µg/mL in assay [2] and 3.5 to 12.5 µg/mL in assay [3].

Turning to `CCNCc1cc2cc3c(cc2n1C)CCCc1c-3[nH]c(=O)c(C(=O)O)c1O.Cl` [Cpd 25, 10-((ethylamino)methyl)-4-hydroxy-9-methyl-2-oxo-1,2,5,6,7,9-hexahydropyrido[3′,2′:6,7]cyclohepta[1,2-f]indole-3-carboxylic acid hydrochloride], the MIC is less than 1 µg/mL in assay [1], less than 1 µg/mL in assay [2] and 3.5 to 12.5 µg/mL in assay [3].

For `CC(C)NCc1cc2cc3c(cc2n1C)CCCc1c-3[nH]c(=O)c(C(=O)O)c1O.Cl` [Cpd 26, 4-hydroxy-10-((isopropylamino)methyl)-9-methyl-2-oxo-1,2,5,6,7,9-hexahydropyrido[3′,2′:6,7]cyclohepta[1,2-f]indole-3-carboxylic acid hydrochloride], the values for the MIC in assay [1], in assay [2] and in assay [3] were less than 1 µg/mL, less than 1 µg/mL and 3.5 to 12.5 µg/mL, respectively.

`Cl.Cn1c(CNC(C)(C)C)cc2cc3c(cc21)CCCc1c-3[nH]c(=O)c(C(=O)O)c1O` [Cpd 27, 10-((tert-butylamino)methyl)-4-hydroxy-9-methyl-2-oxo-1,2,5,6,7,9-hexahydropyrido[3′,2′:6,7]cyclohepta[1,2-f]indole-3-carboxylic acid hydrochloride]: the MIC is less than 1 µg/mL in assay [1], less than 1 µg/mL in assay [2] and 1 to 3.5 µg/mL in assay [3].

As to `Cl.Cn1c(CN2CCC(O)CC2)cc2cc3c(cc21)CCCc1c-3[nH]c(=O)c(C(=O)O)c1O` [Cpd 28, 4-hydroxy-10-((4-hydroxypiperidin-1-yl)methyl)-9-methyl-2-oxo-1,2,5,6,7,9-hexahydropyrido[3′,2′:6,7]cyclohepta[1,2-f]indole-3-carboxylic acid hydrochloride], the MIC in assay [1] is 1 to 3.5 µg/mL; in assay [2], less than 1 µg/mL; in assay [3], 3.5 to 12.5 µg/mL.

Turning to `Cl.Cl.Cn1c(CN2CCC(N)CC2)cc2cc3c(cc21)CCCc1c-3[nH]c(=O)c(C(=O)O)c1O` [Cpd 29, 10-((4-aminopiperidin-1-yl)methyl)-4-hydroxy-9-methyl-2-oxo-1,2,5,6,7,9-hexahydropyrido[3′,2′:6,7]cyclohepta[1,2-f]indole-3-carboxylic acid dihydrochloride], the MIC in assay [1] is 1 to 3.5 µg/mL; in assay [2], less than 1 µg/mL; in assay [3], 12.5 to 150 µg/mL.

As for `CN(C)C1CCN(Cc2cc3cc4c(cc3n2C)CCCc2c-4[nH]c(=O)c(C(=O)O)c2O)CC1.Cl.Cl` [Cpd 30, 10-((4-(dimethylamino)piperidin-1-yl)methyl)-4-hydroxy-9-methyl-2-oxo-1,2,5,6,7,9-hexahydropyrido[3′,2′:6,7]cyclohepta[1,2-f]indole-3-carboxylic acid dihydrochloride], the MIC was 3.5 to 12.5 µg/mL in assay [1], less than 1 µg/mL in assay [2] and 3.5 to 12.5 µg/mL in assay [3].

As to `Cl.Cl.Cn1c(CN2CCCC(N)C2)cc2cc3c(cc21)CCCc1c-3[nH]c(=O)c(C(=O)O)c1O` (stereo not drawn) [Cpd 31, 10-((3-aminopiperidin-1-yl)methyl)-4-hydroxy-9-methyl-2-oxo-1,2,5,6,7,9-hexahydropyrido[3′,2′:6,7]cyclohepta[1,2-f]indole-3-carboxylic acid dihydrochloride], the MIC in assay [1] lay within 3.5 to 12.5 µg/mL; in assay [2] it was 1 to 3.5 µg/mL; in assay [3], 12.5 to 150 µg/mL.

`Cl.Cn1c(CNCC2CC2)cc2cc3c(cc21)CCCc1c-3[nH]c(=O)c(C(=O)O)c1O` [Cpd 32, 10-(((cyclopropylmethyl)amino)methyl)-4-hydroxy-9-methyl-2-oxo-1,2,5,6,7,9-hexahydropyrido[3′,2′:6,7]cyclohepta[1,2-f]indole-3-carboxylic acid hydrochloride]: the values for the MIC in assay [1], in assay [2] and in assay [3] were 1 to 3.5 µg/mL, less than 1 µg/mL and 1 to 3.5 µg/mL, respectively.

As to `Cl.Cn1c(CNC2(C)CC2)cc2cc3c(cc21)CCCc1c-3[nH]c(=O)c(C(=O)O)c1O` [Cpd 33, 4-hydroxy-9-methyl-10-(((1-methylcyclopropyl)amino)methyl)-2-oxo-1,2,5,6,7,9-hexahydropyrido[3′,2′:6,7]cyclohepta[1,2-f]indole-3-carboxylic acid hydrochloride], the MIC was less than 1 µg/mL in assay [1], less than 1 µg/mL in assay [2] and 3.5 to 12.5 µg/mL in assay [3].

Take `Cl.Cn1c(CNCc2ccccc2)cc2cc3c(cc21)CCCc1c-3[nH]c(=O)c(C(=O)O)c1O` [Cpd 34, 10-((benzylamino)methyl)-4-hydroxy-9-methyl-2-oxo-1,2,5,6,7,9-hexahydropyrido[3′,2′:6,7]cyclohepta[1,2-f]indole-3-carboxylic acid hydrochloride]: the figures for the MIC in assay [1], in assay [2] and in assay [3] were 1 to 3.5 µg/mL, less than 1 µg/mL and 1 to 3.5 µg/mL, respectively.

In the case of `Cl.Cn1c(CN)cc2cc3c(cc21)CCCc1c-3[nH]c(=O)c(C(=O)O)c1O` [Cpd 35, 10-(aminomethyl)-4-hydroxy-9-methyl-2-oxo-1,2,5,6,7,9-hexahydropyrido[3′,2′:6,7]cyclohepta[1,2-f]indole-3-carboxylic acid hydrochloride], the MIC in assay [1] is 1 to 3.5 µg/mL; in assay [2], less than 1 µg/mL; in assay [3] it was 3.5 to 12.5 µg/mL.

Consider `Cl.Cn1c(CNC2CC2)cc2cc3c(cc21)CCCc1c-3[nH]c(=O)c(C(=O)O)c1O` [Cpd 36, 10-((cyclopropylamino)methyl)-4-hydroxy-9-methyl-2-oxo-1,2,5,6,7,9-hexahydropyrido[3′,2′:6,7]cyclohepta[1,2-f]indole-3-carboxylic acid hydrochloride], for which the MIC is 1 to 3.5 µg/mL in assay [1], less than 1 µg/mL in assay [2] and 3.5 to 12.5 µg/mL in assay [3].

Turning to `Cl.Cn1c(CNCC2CCC2)cc2cc3c(cc21)CCCc1c-3[nH]c(=O)c(C(=O)O)c1O` [Cpd 37, 10-(((cyclobutylmethyl)amino)methyl)-4-hydroxy-9-methyl-2-oxo-1,2,5,6,7,9-hexahydropyrido[3′,2′:6,7]cyclohepta[1,2-f]indole-3-carboxylic acid hydrochloride], the MIC in assay [1] is 1 to 3.5 µg/mL; in assay [2], less than 1 µg/mL; in assay [3] it was 3.5 to 12.5 µg/mL.

As to `CC1CC1CNCc1cc2cc3c(cc2n1C)CCCc1c-3[nH]c(=O)c(C(=O)O)c1O.Cl` (stereo not drawn) [Cpd 38, 4-hydroxy-9-methyl-10-((((2-methylcyclopropyl)methyl)amino)methyl)-2-oxo-1,2,5,6,7,9-hexahydropyrido[3′,2′:6,7]cyclohepta[1,2-f]indole-3-carboxylic acid hydrochloride], the figures for the MIC in assay [1], in assay [2] and in assay [3] were 1 to 3.5 µg/mL, less than 1 µg/mL and 3.5 to 12.5 µg/mL, respectively.

`Cl.Cn1c(CNCc2ccncc2)cc2cc3c(cc21)CCCc1c-3[nH]c(=O)c(C(=O)O)c1O` [Cpd 39, 4-hydroxy-9-methyl-2-oxo-10-(((pyridin-4-ylmethyl)amino)methyl)-1,2,5,6,7,9-hexahydropyrido[3′,2′:6,7]cyclohepta[1,2-f]indole-3-carboxylic acid hydrochloride]: the MIC in assay [1] was 3.5 to 12.5 µg/mL; in assay [2], less than 1 µg/mL; in assay [3] it was 3.5 to 12.5 µg/mL.

As to `Cl.Cn1c(CN2CCCCC2)cc2cc3c(cc21)CCCc1c-3[nH]c(=O)c(C(=O)O)c1O` [Cpd 40, 4-hydroxy-9-methyl-2-oxo-10-(piperidin-1-ylmethyl)-1,2,5,6,7,9-hexahydropyrido[3′,2′:6,7]cyclohepta[1,2-f]indole-3-carboxylic acid hydrochloride], the MIC in assay [1] is 1 to 3.5 µg/mL; in assay [2], less than 1 µg/mL; in assay [3], 3.5 to 12.5 µg/mL.

Take `Cl.Cn1c(CN2CCOCC2)cc2cc3c(cc21)CCCc1c-3[nH]c(=O)c(C(=O)O)c1O` [Cpd 41, 4-hydroxy-9-methyl-10-(morpholinomethyl)-2-oxo-1,2,5,6,7,9-hexahydropyrido[3′,2′:6,7]cyclohepta[1,2-f]indole-3-carboxylic acid hydrochloride]: the MIC is 3.5 to 12.5 µg/mL in assay [1], less than 1 µg/mL in assay [2] and 1 to 3.5 µg/mL in assay [3].

Regarding `CN1CCN(Cc2cc3cc4c(cc3n2C)CCCc2c-4[nH]c(=O)c(C(=O)O)c2O)CC1.Cl.Cl` [Cpd 42, 4-hydroxy-9-methyl-10-((4-methylpiperazin-1-yl)methyl)-2-oxo-1,2,5,6,7,9-hexahydropyrido[3′,2′:6,7]cyclohepta[1,2-f]indole-3-carboxylic acid dihydrochloride], the MIC in assay [1] is 3.5 to 12.5 µg/mL; in assay [2] it was less than 1 µg/mL; in assay [3] it was 3.5 to 12.5 µg/mL.

With `CCN(CC)Cc1cc2cc3c(cc2n1C)CCCc1c-3[nH]c(=O)c(C(=O)O)c1O.Cl` [Cpd 43, 10-((diethylamino)methyl)-4-hydroxy-9-methyl-2-oxo-1,2,5,6,7,9-hexahydropyrido[3′,2′:6,7]cyclohepta[1,2-f]indole-3-carboxylic acid hydrochloride], the MIC in assay [1] was 1 to 3.5 µg/mL; in assay [2], less than 1 µg/mL; in assay [3], 3.5 to 12.5 µg/mL.
